According to patent US20170029355A1, “LABILE ESTERS OF AGROCHEMICALS FOR CONTROLLED RELEASE AND REDUCTION OF OFF-SITE MOVEMENT” (Monsanto Technology LLC, priority 2011, published 2017):

Key:
[1] = In vitro dicamba photo-release from photo-labile dicamba esters, tetrahydrofuran solvent (Example 26); format: physicochemical
Protocol: This Example describes in vitro testing of dicamba photo-release by homogeneous solutions of photo-labile dicamba esters. The esters were dissolved in tetrahydrofuran (THF). Ester concentration was 0.1 mM. 25 ml of the solution was transferred to 22 mm tubes fabricated from graded seal quartz tubing with a 19/22 tapered seal at the top, which was closed with a tapered glass plug and secured with a plastic ring clamp. The solution was entirely below the quartz-to-glass transition, ensuring that the entire volume was exposed to the full spectrum.
The sealed tubes were placed in a Growth Chamber where they were exposed to simulated sunlight for 14 hours per day at 35° C. Dicamba concentrations in the solution were measured during the course of the photolysis.
A sample of the initial solution was reserved in a glass vial away from the light source and analyzed at the conclusion of the study, providing a measurement of the amount of dicamba present without illumination of the photolysis solution (the “dark control”).

[2] = system: hemp sesbania; test: Field testing of emulsifiable concentrates, post-emergent control (Example 38); format: in vivo; conditions: for % control, 280 g/ha, Hemp sesbania: 280 g dicamba acid equivalent per hectare; for % control, 280 g/ha, Hemp sesbania / % control, 420 g/ha, Hemp sesbania: 11 or 21 days after treatment; for % control, 420 g/ha, Hemp sesbania: 420 g dicamba acid equivalent per hectare
Description: (§1) Four dicamba esters, 1a, 2, 9, and 13a, were formulated as emulsifiable concentrates for field testing. All formulations contained 5% each of a alkylbenzene sulfonate calcium salt (Huntsman NANSA EVM 62/H or Akzo Nobel WITCONATE P-1220 EH) and castor oil ethoxylate (Huntsman SURFONIC CO-54) as the emulsifiers and Aromatic 200 (Exxon) or monochlorobenzene (MCB) as the solvent.
(§2) The esters were compared to the diglycolamine salt of dicamba (CLARITY™) for post-emergent control of three broadleaf weeds: velvetleaf, morning glory, and hemp sesbania. Rates of 280 and 420 g dicamba acid equivalent per hectare were used. […] Evaluations were conducted at 11 or 21 days after treatment. Locations and timing were identical for all formulations tested.

[3] = system: velvetleaf; test: as above; format: in vivo; conditions: for % control, 280 g/ha, Velvetleaf: 280 g dicamba acid equivalent per hectare; for % control, 280 g/ha, Velvetleaf / % control, 420 g/ha, Velvetleaf: 11 or 21 days after treatment; for % control, 420 g/ha, Velvetleaf: 420 g dicamba acid equivalent per hectare
Description: as §1, §2

[4] = system: morning glory; test: as above; format: in vivo; conditions: for % control, 280 g/ha, Morning glory: 280 g dicamba acid equivalent per hectare; for % control, 280 g/ha, Morning glory / % control, 420 g/ha, Morning glory: 11 or 21 days after treatment; for % control, 420 g/ha, Morning glory: 420 g dicamba acid equivalent per hectare
Description: as §1, §2

[5] = system: broadleaf weeds; test: Control of broadleaf weeds by ester concentrates (statements of the description); format: in vivo; conditions: emulsifiable and suspension concentrates; Sesbania macrocarpa, morning glory, velvetleaf, Palmer amaranth, fat hen, sicklepod
[6] = system: Euphorbia species; test: Field testing for post-emergent activity in the Southern Hemisphere (Example 39); format: in vivo; conditions: 9 as suspension concentrate, other esters as emulsifiable concentrates; for % control, 0.25 lb/ac (0.28 kg/hectare): 0.25 lb dicamba a.e. per acre; for % control, 0.50 lb/ac (0.56 kg/hectare): 0.50 lb dicamba a.e. per acre
Protocol: The primary weeds were Euphorbia species. Ester 9 was tested as a suspension concentrate using the formulation of Example 33 The other esters were tested as emulsifiable concentrates having the formulations shown in the table below. Akzo Nobel SPONTO EC 334 and SPONTO EC 336 along with SURFONIC CO-54 and […] (Huntsman) were used as emulsifiers and Aromatic 200 (A 200; Exxon) was used as the solvent. […] The diglycolamine salt of dicamba (CLARITYTM) was used as a comparator.

[7] = Photolysis / cleavage of the esters to dicamba (statements of the description); format: physicochemical; conditions: qualitative
[8] = Solubility of the esters (statements of the description); format: physicochemical; conditions: qualitative
[9] = system: velvetleaf; test: Greenhouse post-emergent control of velvetleaf by emulsifiable concentrates (Example 29); format: in vivo; conditions: three weeks after treatment; for % Control of velvetleaf, 140 g/ha: 140 g dicamba equivalent per hectare; for % Control of velvetleaf, 280 g/ha: 280 g dicamba equivalent per hectare; for % Control of velvetleaf, 420 g/ha: 420 g dicamba equivalent per hectare; for % Control of velvetleaf, 560 g/ha: 560 g dicamba equivalent per hectare
Protocol: (§3) The efficacy of some photo-labile ester formulations from Example 28 for post-emergent control of velvetleaf was tested in the greenhouse. All formulations were tested at rates of 140, 280, 420, and 560 g dicamba equivalent per hectare rates and compared to the diglycolamine salt of dicamba (CLARITY®) at the same rates and untreated control plants. The velvetleaf plants were 10-15 cm in height at the time of spraying. Percent control was evaluated three weeks after treatment.

[10] = system: glyphosate-tolerant, dicamba-sensitive soy plants; test: Humidome volatility injury to dicamba-sensitive plants (Example 31); conditions: in vivo
Description: In this case, the diglycolamine salt of dicamba (CLARITY®) was used for comparison.
Dicamba photo-labile ester formulations from Example 28 were mixed with a commercial glyphosate formulation (ROUNDUP POWERMAX®) and diluted to provide a solution with a 0.5% dicamba equivalent concentrate of the ester (or dicamba diglycolamine salt) and 1.5% concentrate of glyphosate. The mixtures were sprayed at a 10 gallon per acre (93.5 liters per hectare) rate on soil in a plastic container (“humidome”) with a transparent lid. One soil container was sprayed with water as a control. Four glyphosate-tolerant, dicamba-sensitive soy plants between V2 and V3 stage were immediately placed on the sprayed soil and the domes attached to the trays with binder clips. The soy plants were in pots placed directly on the soil but with aluminum foil wrapped around the bottom to prevent uptake of dicamba or dicamba esters through the roots.
The closed containers were held for 24 hours in a growth chamber which was maintained at 35° C. with 40% relative humidity. The plants were then removed and grown in a greenhouse for three weeks. At this time plant injury and growth stage were assessed compared to the control treated with water only.

[11] = system: velvetleaf; test: Greenhouse post-emergent control of velvetleaf by emulsifiable concentrates (Example 37); format: in vivo; conditions: greenhouse, Example 37
In short: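 Photo-labile dicamba ester emulsifiable concentrates sprayed post-emergence in the greenhouse on velvetleaf 10-15 cm tall at 140, 280, 420 and 560 g dicamba equivalent per hectare. Percent control scored three weeks after treatment.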

[12] = system: velvetleaf; test: Greenhouse post-emergent control of velvetleaf by emulsifiable concentrates (Example 30); format: in vivo
Protocol: as §3
The methodology of Example 29 was used to evaluate the efficacy of several photo-labile esters of dicamba for post-emergent control of velvetleaf as emulsifiable concentrate formulations described in Example 28.

[13] = system: soybeans; test: Humidome volatility injury, ester 32a emulsifiable concentrate (Example 32); conditions: in vivo
Description: […] The mixtures were sprayed at a 10 gallon per acre (93.5 liters per hectare) rate on soil in a plastic container (“humidome”) with a transparent lid. One soil container was sprayed with water as a control. Four glyphosate-tolerant, dicamba-sensitive soy plants between V2 and V3 stage were immediately placed on the sprayed soil and the domes attached to the trays with binder clips. The soy plants were in pots placed directly on the soil but with aluminum foil wrapped around the bottom to prevent uptake of dicamba or dicamba esters through the roots.
The closed containers were held for 24 hours in a growth chamber which was maintained at 35° C. with 40% relative humidity. […] At this time plant injury and growth stage were assessed compared to the control treated with water only.

[14] = system: hemp sesbania; test: Field testing of emulsifiable concentrates, post-emergent control (Example 40); format: in vivo
Protocol: (§4) Three dicamba esters, 30a, 32a, and 36a, were formulated as emulsifiable concentrates for field testing. All surfactants are commercial materials from Stepan.
(§5) The formulations were tested in the field. Locations and timing were identical for the three esters, but differed slightly for the diglycolamine control. The esters were compared to the diglycolamine salt of dicamba (CLARITY™) for post-emergent control of three broadleaf weeds: velvetleaf, morning glory, and hemp sesbania. Rates of 280 and 560 g dicamba acid equivalent per hectare were used.

[15] = system: velvetleaf; test: as above; format: in vivo
Protocol: as §4, §5

[16] = system: morning glory; test: as above; format: in vivo
Protocol: as §4, §5

[17] = Field dicamba volatility, airborne dicamba collected by air samplers (Example 34); format: physicochemical; conditions: field plot, 0.5 lb/acre dicamba a.e. with ROUNDUP WEATHERMAX, airborne dicamba collected over 24 hours, maximum 86° F.
[18] = 280 and 420 g dicamba acid equivalent per hectare
[19] = 280 g dicamba acid equivalent per hectare
[20] = 560 g dicamba acid equivalent per hectare

COc1ccc(C(=O)COC(=O)c2c(Cl)ccc(Cl)c2OC)cc1 [Ester 9, 4-methoxyphenacyl methyl ester of dicamba]
Dark Control % dicamba ([1]; THF, 0.1 mM ester, initial solution kept away from the light source, analyzed at conclusion of study): 1%
Conversion to dicamba, 1 day ([1]; THF, 0.1 mM ester, simulated sunlight 14 hours per day, 35° C., 1 day): 76%
Conversion to dicamba, 2 days ([1]; THF, 0.1 mM ester, simulated sunlight 14 hours per day, 35° C., 2 days): 91%
Conversion to dicamba, 3 days ([1]; THF, 0.1 mM ester, simulated sunlight 14 hours per day, 35° C., 3 days): 90%
Conversion to dicamba, 5 days ([1]; THF, 0.1 mM ester, simulated sunlight 14 hours per day, 35° C., 5 days): 89%
Conversion to dicamba, 7 days ([1]; THF, 0.1 mM ester, simulated sunlight 14 hours per day, 35° C., 7 days): 89%
photo-efficiency of dicamba generation ([1]; in vitro studies): ~100%
post-emergent control of hemp sesbania compared with the dicamba salt, in words [2, 18]: equivalent to the dicamba salt
% control, 280 g/ha, Hemp sesbania [2]: 86%
% control, 420 g/ha, Hemp sesbania [2]: 93%
post-emergent control of velvetleaf compared with the dicamba salt, in words [3, 18]: nearly equivalent to the dicamba salt
% control, 280 g/ha, Velvetleaf [3]: 79%
% control, 420 g/ha, Velvetleaf [3]: 80%
post-emergent control of morning glory compared with the dicamba salt, in words [4, 18]: equivalent to the dicamba salt
% control, 280 g/ha, Morning glory [4]: 98%
% control, 420 g/ha, Morning glory [4]: 100%
control of a number of broadleaf weeds in field testing, in words [5]: proven effective
% control, 0.25 lb/ac (0.28 kg/hectare) [6]: 54%
% control, 0.50 lb/ac (0.56 kg/hectare) [6]: 62%
photolysis / photo-release of dicamba, in words [7]: efficient photo-release of 9 in a suspension concentrate formulation occurs over several weeks
solubility, in words [8]: relatively insoluble
% Control of velvetleaf, 140 g/ha [9]: 23%
% Control of velvetleaf, 280 g/ha [9]: 19%
% Control of velvetleaf, 420 g/ha [9]: 28%
% Control of velvetleaf, 560 g/ha [9]: 29%

COc1c(Cl)ccc(Cl)c1C(=O)O.NCCOCCO [Diglycolamine salt, diglycolamine salt of dicamba, reference compound]
Growth Stage [10]: 6
% Control of velvetleaf, 140 g/ha ([11]; 140 g/ha): 43.3%
% Control of velvetleaf, 280 g/ha ([11]; 280 g/ha): 65.8%
% Control of velvetleaf, 420 g/ha ([11]; 420 g/ha): 87.5%
% Control of velvetleaf, 560 g/ha ([11]; 560 g/ha): 90.0%
% control, 280 g/ha, Hemp sesbania [2]: 81%
% control, 420 g/ha, Hemp sesbania [2]: 88%
% control, 280 g/ha, Velvetleaf [3]: 87%
% control, 420 g/ha, Velvetleaf [3]: 91%
% control, 280 g/ha, Morning glory [4]: 100%
% control, 420 g/ha, Morning glory [4]: 100%
% Control of velvetleaf, 140 g/ha ([12]; 140 g/ha): 54%
% Control of velvetleaf, 280 g/ha ([12]; 280 g/ha): 86%
% Control of velvetleaf, 420 g/ha ([12]; 420 g/ha): 96%
% Control of velvetleaf, 560 g/ha ([12]; 560 g/ha): 96%
% control, 0.25 lb/ac (0.28 kg/hectare) [6]: 53%
% control, 0.50 lb/ac (0.56 kg/hectare) [6]: 70%
average injury to soybeans [13]: 60%
% Control of velvetleaf, 140 g/ha [9]: 44%
% Control of velvetleaf, 280 g/ha [9]: 63%
% Control of velvetleaf, 420 g/ha [9]: 68%
% Control of velvetleaf, 560 g/ha [9]: 83%
% control 19 days after treatment, 280 g/ha, Hemp sesbania [14, 19]: 89 ± 5%
% control 19 days after treatment, 560 g/ha, Hemp sesbania [14, 20]: 96 ± 2%
% control 19 days after treatment, 280 g/ha, Velvetleaf [15, 19]: 78 ± 10%
% control 19 days after treatment, 560 g/ha, Velvetleaf [15, 20]: 91 ± 7%
% control 19 days after treatment, 280 g/ha, Morning glory [16, 19]: 89 ± 11%
% control 19 days after treatment, 560 g/ha, Morning glory [16, 20]: 94 ± 12%
average dicamba level from the five air samplers [17]: 11.1 ng/m^3
